Measurements as given in patent US11767341B2, “Lincosamide antibiotics and uses thereof” (President and Fellows of Harvard College, priority 2017, dated 2023).
≈ marks a conversion by molar mass, not a printed value. Read-outs that look alike come from different tables or passages of the source. One block for each compound: values may come before it.

Key:
Assay in all cases: MIC determination
Format in all cases: cell-based
[1] = tested on: E. coli MP-74 LptD mutant; conditions: Escherichia coli
K. pneumoniae ATCC 10031 = conditions: Klebsiella pneumoniae, ATCC10031
E. faecalis ATCC 29212 = conditions: Enterococcus faecalis
S. pneumoniae ATCC 49619 = conditions: Streptococcus pneumoniae, ATCC49619; S. pneumoniae ATCC 49619; read-out: MIC
S. pyogenes ATCC 19615 = conditions: Streptococcus pyogenes, ATCC19615; S. pyogenes ATCC 19615; read-out: MIC
H. influenzae ATCC 49247 = conditions: Haemophilus influenzae, ATCC49247
E. coli ATCC 25922 = conditions: Escherichia coli
S. aureus ATCC 29213 = conditions: Staphylococcus aureus, ATCC29213, S. aureus ATCC 29213; read-out: MIC
[2] = tested on: S. aureus MP-549 msr(a) USA 300; conditions: Staphylococcus aureus, USA300, S. aureus MP-549 msr(a) USA 300
E. coli MP-9 ΔTolC = conditions: Escherichia coli
S. aureus BAA 977 iErmA = conditions: Staphylococcus aureus, BAA977
[3] = K. pneumoniae ATCC 10031, read-out: MIC
[4] = ATCC25922, E. coli ATCC 25922, read-out: MIC
[5] = H. influenzae ATCC 49247, read-out: MIC

SMILES: CSC1O[C@H]([C@H](NC(=O)[C@H]2NC[C@@H]3CC(NCc4ccc(F)cc4)CCO[C@H]32)[C@H](C)Cl)C(O)[C@@H](O)[C@H]1O (stereo partly shown) [FSA-510074]
MIC [1]: > 64 µg/mL
MIC (K. pneumoniae ATCC 10031): > 64 µg/mL
MIC (E. faecalis ATCC 29212; ATCC29212): > 64 µg/mL
MIC (S. pneumoniae ATCC 49619): 32 µg/mL (≈ 56.9 µM)
MIC (S. pyogenes ATCC 19615): 8 µg/mL (≈ 14.2 µM)
MIC (H. influenzae ATCC 49247): > 64 µg/mL
MIC (E. coli ATCC 25922; ATCC25922): > 64 µg/mL
MIC (S. aureus ATCC 29213): 64 µg/mL (≈ 114 µM)
MIC [2]: 64 µg/mL (≈ 114 µM)
MIC (E. coli MP-9 ΔTolC): > 64 µg/mL

SMILES: CSC1O[C@H]([C@H](NC(=O)[C@H]2NC[C@@H]3CC(NC4CC4)CCO[C@H]32)[C@H](C)Cl)C(O)[C@@H](O)[C@H]1O (stereo partly shown) [FSA-510011]
MIC [1]: > 64 µg/mL
MIC (S. aureus BAA 977 iErmA): 32 µg/mL (≈ 64.8 µM)
MIC (K. pneumoniae ATCC 10031): > 64 µg/mL
MIC (E. faecalis ATCC 29212; ATCC29212): > 64 µg/mL
MIC (S. pneumoniae ATCC 49619): 8 µg/mL (≈ 16.2 µM)
MIC (S. pyogenes ATCC 19615): 2 µg/mL (≈ 4.05 µM)
MIC (H. influenzae ATCC 49247): > 64 µg/mL
MIC (E. coli ATCC 25922; ATCC25922): > 64 µg/mL
MIC (S. aureus ATCC 29213): 32 µg/mL (≈ 64.8 µM)
MIC (E. coli MP-9 ΔTolC): > 64 µg/mL

SMILES: CSC1O[C@H]([C@H](NC(=O)[C@H]2NC[C@@H]3CC(NCc4cccc(F)c4)CCO[C@H]32)[C@H](C)Cl)C(O)[C@@H](O)[C@H]1O (stereo partly shown) [FSA-510073]
MIC [1]: > 64 µg/mL
MIC (K. pneumoniae ATCC 10031): > 64 µg/mL
MIC (E. faecalis ATCC 29212; ATCC29212): > 64 µg/mL
MIC (S. pneumoniae ATCC 49619): 8 µg/mL (≈ 14.2 µM)
MIC (S. pyogenes ATCC 19615): 2 µg/mL (≈ 3.56 µM)
MIC (H. influenzae ATCC 49247): > 64 µg/mL
MIC (E. coli ATCC 25922; ATCC25922): > 64 µg/mL
MIC (S. aureus ATCC 29213): 16 µg/mL (≈ 28.5 µM)
MIC [2]: 16 µg/mL (≈ 28.5 µM)
MIC (E. coli MP-9 ΔTolC): > 64 µg/mL

SMILES: CSC1O[C@H]([C@H](NC(=O)[C@H]2NC[C@@H]3CC=CCO[C@@H]32)[C@H](C)Cl)C(O)[C@@H](O)[C@H]1O (stereo partly shown) [FSA-504059]
MIC [1]: > 64 µg/mL
MIC (K. pneumoniae ATCC 10031): > 64 µg/mL
MIC (E. faecalis ATCC 29212; ATCC29212): 32 µg/mL (≈ 73.2 µM)
MIC (S. pneumoniae ATCC 49619): 0.25 µg/mL (≈ 0.572 µM)
MIC (S. pyogenes ATCC 19615): 0.12 µg/mL (≈ 0.275 µM)
MIC (H. influenzae ATCC 49247): > 64 µg/mL
MIC (E. coli ATCC 25922; ATCC25922): > 64 µg/mL
MIC (S. aureus ATCC 29213): 2 µg/mL (≈ 4.58 µM)
MIC [2]: 2 µg/mL (≈ 4.58 µM)
MIC (E. coli MP-9 ΔTolC): > 64 µg/mL

SMILES: COc1ccc(C2=CCO[C@@H]3[C@H](CN[C@@H]3C(=O)N[C@H]([C@H](C)Cl)[C@H]3OC(SC)[C@H](O)[C@H](O)C3O)C2)cc1 (stereo partly shown) [FSA-511020]
MIC [1]: 64 µg/mL (≈ 118 µM)
MIC (K. pneumoniae ATCC 10031; [3]): > 64 µg/mL
MIC (E. faecalis ATCC 29212; ATCC29212, read-out: MIC): 4 µg/mL (≈ 7.37 µM)
MIC (S. pneumoniae ATCC 49619): ≤ 0.06 µg/mL
MIC (S. pyogenes ATCC 19615): ≤ 0.06 µg/mL
MIC (H. influenzae ATCC 49247): 64 µg/mL (≈ 118 µM)
MIC (E. coli ATCC 25922; [4]): > 64 µg/mL
MIC (S. aureus ATCC 29213): 0.5 µg/mL (≈ 0.921 µM)
MIC [2]: 1 µg/mL (≈ 1.84 µM)
MIC (E. coli MP-9 ΔTolC): 64 µg/mL (≈ 118 µM)

SMILES: CSC1O[C@H]([C@H](NC(=O)[C@H]2NC[C@@H]3C=C(C#Cc4ccccc4)CCO[C@@H]23)[C@H](C)Cl)C(O)[C@@H](O)[C@H]1O (stereo partly shown) [FSA-510002]
MIC [1]: 32 µg/mL (≈ 59.6 µM)
MIC (S. aureus BAA 977 iErmA): 0.25 µg/mL (≈ 0.465 µM)
MIC (K. pneumoniae ATCC 10031; [3]): 64 µg/mL (≈ 119 µM)
MIC (E. faecalis ATCC 29212; ATCC29212, read-out: MIC): 2 µg/mL (≈ 3.72 µM)
MIC (S. pneumoniae ATCC 49619): 0.25 µg/mL (≈ 0.465 µM)
MIC (S. pyogenes ATCC 19615): 0.25 µg/mL (≈ 0.465 µM)
MIC (H. influenzae ATCC 49247): 32 µg/mL (≈ 59.6 µM)
MIC (E. coli ATCC 25922; ATCC25922): > 64 µg/mL
MIC (S. aureus ATCC 29213): 0.5 µg/mL (≈ 0.931 µM)
MIC (E. coli MP-9 ΔTolC): > 64 µg/mL

SMILES: CSC1O[C@H]([C@H](NC(=O)[C@H]2NC[C@@H]3CC(c4ccc(-c5ccccc5)cc4)=CCO[C@H]32)[C@H](C)Cl)C(O)[C@@H](O)[C@H]1O (stereo partly shown) [FSA-510001]
MIC [1]: 8 µg/mL (≈ 13.6 µM)
MIC (S. aureus BAA 977 iErmA): 2 µg/mL (≈ 3.39 µM)
MIC (K. pneumoniae ATCC 10031): > 64 µg/mL
MIC (E. faecalis ATCC 29212; ATCC29212): 8 µg/mL (≈ 13.6 µM)
MIC (S. pneumoniae ATCC 49619): 4 µg/mL (≈ 6.79 µM)
MIC (S. pyogenes ATCC 19615): 2 µg/mL (≈ 3.39 µM)
MIC (H. influenzae ATCC 49247; [5]): 16 µg/mL (≈ 27.2 µM)
MIC (E. coli ATCC 25922; ATCC25922): > 64 µg/mL
MIC (S. aureus ATCC 29213): 2 µg/mL (≈ 3.39 µM)
MIC (E. coli MP-9 ΔTolC): > 64 µg/mL

SMILES: COc1ccc(C2=C[C@H]3CN[C@H](C(=O)N[C@H]([C@H](C)Cl)[C@H]4OC(SC)[C@H](O)[C@H](O)C4O)[C@@H]3OCC2)cc1 (stereo partly shown) [FSA-512076]
MIC [1]: 64 µg/mL (≈ 118 µM)
MIC (E. faecalis ATCC 29212; ATCC29212, read-out: MIC): 2 µg/mL (≈ 3.68 µM)
MIC (S. pneumoniae ATCC 49619): ≤ 0.12 µg/mL
MIC (S. pyogenes ATCC 19615): ≤ 0.12 µg/mL
MIC (H. influenzae ATCC 49247; [5]): 128 µg/mL (≈ 236 µM)
MIC (E. coli ATCC 25922; [4]): > 256 µg/mL
MIC (S. aureus ATCC 29213): 0.25 µg/mL (≈ 0.46 µM)
MIC [2]: 0.25 µg/mL (≈ 0.46 µM)
MIC (E. coli MP-9 ΔTolC): 64 µg/mL (≈ 118 µM)

MIC (E. faecalis ATCC 29212; ATCC29212, read-out: MIC): > 64 µg/mL
MIC (S. pneumoniae ATCC 49619): 32 µg/mL (≈ 46.5 µM)
MIC (S. pyogenes ATCC 19615): 8 µg/mL (≈ 11.6 µM)
MIC (E. coli ATCC 25922; [4]): > 64 µg/mL
MIC (S. aureus ATCC 29213): > 64 µg/mL
SMILES: CCOC(=O)CCN1C[C@@H]2CC=CCO[C@H]2[C@H]1C(=O)N[C@H]([C@H](C)Sc1ccc(-c2cccnc2)cc1)[C@H]1OC(SC)[C@H](O)[C@H](O)C1O (stereo partly shown) [FSA-214009b]

SMILES: CSC1O[C@H]([C@H](NC(=O)[C@H]2NC[C@@H]3C=C(c4ccc(C#N)cc4)CCO[C@@H]23)[C@H](C)Cl)C(O)[C@@H](O)[C@H]1O (stereo partly shown) [FSA-512077]
MIC [1]: 64 µg/mL (≈ 119 µM)
MIC (E. faecalis ATCC 29212; ATCC29212, read-out: MIC): 1 µg/mL (≈ 1.86 µM)
MIC (S. pneumoniae ATCC 49619): ≤ 0.12 µg/mL
MIC (S. pyogenes ATCC 19615): ≤ 0.12 µg/mL
MIC (H. influenzae ATCC 49247; [5]): 128 µg/mL (≈ 238 µM)
MIC (E. coli ATCC 25922; [4]): > 256 µg/mL
MIC (S. aureus ATCC 29213): 0.5 µg/mL (≈ 0.929 µM)
MIC [2]: 0.25 µg/mL (≈ 0.465 µM)
MIC (E. coli MP-9 ΔTolC): 16 µg/mL (≈ 29.7 µM)

SMILES: CSC1O[C@H]([C@H](NC(=O)[C@H]2NC[C@@H]3CCCCO[C@@H]32)[C@H](C)Cl)C(O)[C@@H](O)[C@H]1O (stereo partly shown) [FSA-504062]
MIC [1]: > 64 µg/mL
MIC (K. pneumoniae ATCC 10031): > 64 µg/mL
MIC (E. faecalis ATCC 29212; ATCC29212, read-out: MIC): 32 µg/mL (≈ 72.9 µM)
MIC (S. pneumoniae ATCC 49619): 0.25 µg/mL (≈ 0.57 µM)
MIC (S. pyogenes ATCC 19615): 0.12 µg/mL (≈ 0.273 µM)
MIC (H. influenzae ATCC 49247): > 64 µg/mL
MIC (E. coli ATCC 25922; ATCC25922): > 64 µg/mL
MIC (S. aureus ATCC 29213): 2 µg/mL (≈ 4.56 µM)
MIC [2]: 1 µg/mL (≈ 2.28 µM)
MIC (E. coli MP-9 ΔTolC): > 64 µg/mL
